System: reprogramming resistant regions (RRRs) / ZGA genes
Assay: RNA-seq of late 8-cell human SCNT embryos with or without KDM4A mRNA injection (ZGA of RRRs, KDM4A-responsive genes)
Format: cell-based
Details: 8-cell embryos
Source text: A sliding window (size 20 kb, step size 10 kb) was used to assess the genome-wide expression level of 4-cell and 8-cell human embryos. For each window, the expression level was quantified with normalized RPM (reads per millions of uniquely mapped reads). […] These activated regions were classed into three groups based on their expression differences in human SCNT and IVF 8-cell embryos.
The SCNT embryos used for ZGA analysis were generated using oocytes donated by a single healthy person (#64) and dermal fibroblast cells from an AMD patient (DFB-8). SCNT and IVF embryos were cultured up to late 8-cell stage, when the compaction of blastomeres is initiated, then they were treated briefly with acid Tyrode solution to remove zona pellucida. To prepare for the 8-cell SCNT embryo, oocytes from a single oocyte donor, and skin fibroblast cells from a single somatic nuclear donor were used. All the procedures are the same as described in the “Human SCNT procedure and KMD4A mRNA injection” section. Only embryos that reached the late 8-cell stage synchronically 74 hours post activation were collected and used for this experiment.
For preparation of the control IVF embryos, several donated early 8-cell stage IVF embryos were thawed and cultured for 5-7 hours to allow them to reach late 8-cell stage before being processed. After removal of the zona pellucida, the denuded embryos were washed 3 times in PBS, loaded into RNAse and DNAse free PCR tubes, spin downed, and snap frozen in liquid nitrogen. Then, they were kept at −80° C. until use. As controls, dermal fibroblast cells of somatic nuclear donors were also prepared. Those fibroblast cells were cultured in a 25 cm^2 flask in DMEM 10% FBS, and approximately 10,000 cells/donor were collected, snap frozen, and stored at −80° C. until use.
Five 8-cell embryos for each group were directly lysed and used for cDNA synthesis using SMART-Seq v4 Ultra Low Input RNA Kit (Clontech). For MEF donor, 10 ng total RNA was used for cDNA synthesis using SMART-Seq v4 Ultra Low Input RNA Kit. After amplification, the cDNA samples were fragmented using Covaris sonicator M220 to an average size of 150 bp (Covaris). Sequencing libraries were made with the fragmented DNA using NEBNext Ultra DNA Library Prep Kit for Illumina according to manufacturer's instruction (New England Biolabs) with different barcodes. For each RNA-seq analysis of hESCs, 1 μg total RNA was used for mRNA purification. Barcoded RNA-seq libraries were generated using NEBNext Ultra Directional RNA Library Prep Kit for Illumina (New England Biolabs). Single end 50 bp sequencing was performed on a HiSeq 2500 sequencer (Illumina). Sequencing reads were mapped to the human genome (hg19) with Tophat2. All programs were performed with default settings (unless otherwise specified). At least 22 million uniquely mapped reads were obtained for each sequencing library, and subsequently assembled into transcripts guided by the reference annotation (Refseq gene models) with Cufflinks v2.0.2. Expression level of each gene was quantified with normalized FPKM (fragments per kilobase of exon per million mapped fragments). Statistical analyses were performed with R (available at: “www.r-project.org/”). Independent 2 group Wilcoxon rank sum tests were used to compare distributions using the wilcox.test function in R. Pearson's r coefficient was calculated using the cor function with default parameters. The hierarchical clustering analysis of the global gene expression pattern in different samples was carried out using heatmap.2 function (gplots package) in R.

KDM4A mRNA: in vitro transcribed mRNA of full length human KDM4A/JHDM3A cDNA, an H3K9me3 demethylase (SEQ ID NO: 1)
NDUFAF2 Fold Change (log2) [KDM4A SCNT/Control SCNT]: 1.16 log2
NMNAT1 Fold Change (log2) [KDM4A SCNT/Control SCNT]: 1.28 log2
NOC4L Fold Change (log2) [KDM4A SCNT/Control SCNT]: 1.15 log2
NOP58 Fold Change (log2) [KDM4A SCNT/Control SCNT]: 1.4 log2
NUDT9 Fold Change (log2) [KDM4A SCNT/Control SCNT]: 1.82 log2
PAGE5 Fold Change (log2) [KDM4A SCNT/Control SCNT]: 1.24 log2
PDCD11 Fold Change (log2) [KDM4A SCNT/Control SCNT]: 1.11 log2
PDE4DIP Fold Change (log2) [KDM4A SCNT/Control SCNT]: 1.79 log2
PHOSPHO1 Fold Change (log2) [KDM4A SCNT/Control SCNT]: 1.46 log2
PIK3R4 Fold Change (log2) [KDM4A SCNT/Control SCNT]: 1.58 log2
PLBD1 Fold Change (log2) [KDM4A SCNT/Control SCNT]: 1.69 log2
PLD2 Fold Change (log2) [KDM4A SCNT/Control SCNT]: 1.2 log2
PLVAP Fold Change (log2) [KDM4A SCNT/Control SCNT]: 1.63 log2
POLR3K Fold Change (log2) [KDM4A SCNT/Control SCNT]: 1.34 log2
POTEM Fold Change (log2) [KDM4A SCNT/Control SCNT]: 1.56 log2
PPM1N Fold Change (log2) [KDM4A SCNT/Control SCNT]: 1.68 log2
PPP2CB Fold Change (log2) [KDM4A SCNT/Control SCNT]: 2.17 log2
PRAMEF3 Fold Change (log2) [KDM4A SCNT/Control SCNT]: 2.4 log2
PRAMEF4 Fold Change (log2) [KDM4A SCNT/Control SCNT]: 1.02 log2
PRAMEF6 Fold Change (log2) [KDM4A SCNT/Control SCNT]: 1.08 log2
PRAMEF10 Fold Change (log2) [KDM4A SCNT/Control SCNT]: 1.05 log2
PRAMEF11 Fold Change (log2) [KDM4A SCNT/Control SCNT]: 1.31 log2
PRAMEF17 Fold Change (log2) [KDM4A SCNT/Control SCNT]: 1.44 log2
PRPF39 Fold Change (log2) [KDM4A SCNT/Control SCNT]: 1.4 log2
PTPN22 Fold Change (log2) [KDM4A SCNT/Control SCNT]: 2.57 log2
RAB9A Fold Change (log2) [KDM4A SCNT/Control SCNT]: 1.39 log2
RASA2 Fold Change (log2) [KDM4A SCNT/Control SCNT]: 1.36 log2
RFK Fold Change (log2) [KDM4A SCNT/Control SCNT]: 1.29 log2
RNU11 Fold Change (log2) [KDM4A SCNT/Control SCNT]: 5.27 log2
RP2 Fold Change (log2) [KDM4A SCNT/Control SCNT]: 1.82 log2
RPF2 Fold Change (log2) [KDM4A SCNT/Control SCNT]: 1.46 log2
RPS6KB2 Fold Change (log2) [KDM4A SCNT/Control SCNT]: 1.81 log2
SAMD8 Fold Change (log2) [KDM4A SCNT/Control SCNT]: 1.14 log2
SCO1 Fold Change (log2) [KDM4A SCNT/Control SCNT]: 1.15 log2
SEPX1 Fold Change (log2) [KDM4A SCNT/Control SCNT]: 1.36 log2
SERTAD1 Fold Change (log2) [KDM4A SCNT/Control SCNT]: 1.12 log2
SFTPD Fold Change (log2) [KDM4A SCNT/Control SCNT]: 2.45 log2
SGCG Fold Change (log2) [KDM4A SCNT/Control SCNT]: 2.73 log2
SGPP1 Fold Change (log2) [KDM4A SCNT/Control SCNT]: 1.41 log2
SHFM1 Fold Change (log2) [KDM4A SCNT/Control SCNT]: 1.73 log2
SIAH1 Fold Change (log2) [KDM4A SCNT/Control SCNT]: 1.7 log2
SNAPC1 Fold Change (log2) [KDM4A SCNT/Control SCNT]: 1.71 log2
SNAR-C3 Fold Change (log2) [KDM4A SCNT/Control SCNT]: 1.85 log2
SNAR-E Fold Change (log2) [KDM4A SCNT/Control SCNT]: 1.72 log2
SNHG9 Fold Change (log2) [KDM4A SCNT/Control SCNT]: 1.3 log2
SNHG12 Fold Change (log2) [KDM4A SCNT/Control SCNT]: 1.42 log2
SPINK7 Fold Change (log2) [KDM4A SCNT/Control SCNT]: 5.38 log2
SRA1 Fold Change (log2) [KDM4A SCNT/Control SCNT]: 1.23 log2
SSX3 Fold Change (log2) [KDM4A SCNT/Control SCNT]: 1.1 log2
STAG3L2 Fold Change (log2) [KDM4A SCNT/Control SCNT]: 1.35 log2
STAG3L4 Fold Change (log2) [KDM4A SCNT/Control SCNT]: 1.17 log2
STAP2 Fold Change (log2) [KDM4A SCNT/Control SCNT]: 1.25 log2
SUZ12P Fold Change (log2) [KDM4A SCNT/Control SCNT]: 1.68 log2
TAC1 Fold Change (log2) [KDM4A SCNT/Control SCNT]: 1.38 log2
TCEANC2 Fold Change (log2) [KDM4A SCNT/Control SCNT]: 1.13 log2
TCN2 Fold Change (log2) [KDM4A SCNT/Control SCNT]: 1.4 log2
TEN1 Fold Change (log2) [KDM4A SCNT/Control SCNT]: 1.66 log2
THOC5 Fold Change (log2) [KDM4A SCNT/Control SCNT]: 1.46 log2
TIMM10 Fold Change (log2) [KDM4A SCNT/Control SCNT]: 1.41 log2
TMEM41B Fold Change (log2) [KDM4A SCNT/Control SCNT]: 1.14 log2
TMEM92 Fold Change (log2) [KDM4A SCNT/Control SCNT]: 1.42 log2
TMEM159 Fold Change (log2) [KDM4A SCNT/Control SCNT]: 1.17 log2
TRIM39-RPP21 Fold Change (log2) [KDM4A SCNT/Control SCNT]: 1.09 log2
TRIML2 Fold Change (log2) [KDM4A SCNT/Control SCNT]: 1.55 log2
TSEN34 Fold Change (log2) [KDM4A SCNT/Control SCNT]: 1.28 log2
TTC27 Fold Change (log2) [KDM4A SCNT/Control SCNT]: 1.72 log2
TTC28-AS1 Fold Change (log2) [KDM4A SCNT/Control SCNT]: 1.74 log2
UBTFL1 Fold Change (log2) [KDM4A SCNT/Control SCNT]: 1.8 log2
UTP3 Fold Change (log2) [KDM4A SCNT/Control SCNT]: 1.08 log2
UTP23 Fold Change (log2) [KDM4A SCNT/Control SCNT]: 1.35 log2
UTS2 Fold Change (log2) [KDM4A SCNT/Control SCNT]: 1.28 log2
VAMP1 Fold Change (log2) [KDM4A SCNT/Control SCNT]: 2.23 log2
VCX2 Fold Change (log2) [KDM4A SCNT/Control SCNT]: 1.77 log2
VCX Fold Change (log2) [KDM4A SCNT/Control SCNT]: 1.72 log2
VPS54 Fold Change (log2) [KDM4A SCNT/Control SCNT]: 2.28 log2
WDR77 Fold Change (log2) [KDM4A SCNT/Control SCNT]: 1.18 log2
XAGE5 Fold Change (log2) [KDM4A SCNT/Control SCNT]: 1.07 log2
ZCCHC10 Fold Change (log2) [KDM4A SCNT/Control SCNT]: 1.22 log2
ZFYVE19 Fold Change (log2) [KDM4A SCNT/Control SCNT]: 1.49 log2
ZNF92 Fold Change (log2) [KDM4A SCNT/Control SCNT]: 1.03 log2
ZNF100 Fold Change (log2) [KDM4A SCNT/Control SCNT]: 2.53 log2
ZNF174 Fold Change (log2) [KDM4A SCNT/Control SCNT]: 1.24 log2
ZNF208 Fold Change (log2) [KDM4A SCNT/Control SCNT]: 1.57 log2
ZNF254 Fold Change (log2) [KDM4A SCNT/Control SCNT]: 1.37 log2
ZNF273 Fold Change (log2) [KDM4A SCNT/Control SCNT]: 1.11 log2
ZNF280A Fold Change (log2) [KDM4A SCNT/Control SCNT]: 1.34 log2
ZNF326 Fold Change (log2) [KDM4A SCNT/Control SCNT]: 1.37 log2
ZNF345 Fold Change (log2) [KDM4A SCNT/Control SCNT]: 1.46 log2
ZNF486 Fold Change (log2) [KDM4A SCNT/Control SCNT]: 1.74 log2
ZNF487P Fold Change (log2) [KDM4A SCNT/Control SCNT]: 1.2 log2
ZNF625-ZNF20 Fold Change (log2) [KDM4A SCNT/Control SCNT]: 2.32 log2
ZNF625 Fold Change (log2) [KDM4A SCNT/Control SCNT]: 1.87 log2
ZNF669 Fold Change (log2) [KDM4A SCNT/Control SCNT]: 1.08 log2
ZNF675 Fold Change (log2) [KDM4A SCNT/Control SCNT]: 1.87 log2
ZNF676 Fold Change (log2) [KDM4A SCNT/Control SCNT]: 1.29 log2
ZNF679 Fold Change (log2) [KDM4A SCNT/Control SCNT]: 2.13 log2
ZNF680 Fold Change (log2) [KDM4A SCNT/Control SCNT]: 1.18 log2
ZNF684 Fold Change (log2) [KDM4A SCNT/Control SCNT]: 1.53 log2
ZNF700 Fold Change (log2) [KDM4A SCNT/Control SCNT]: 1.49 log2
ZNF724P Fold Change (log2) [KDM4A SCNT/Control SCNT]: 1.04 log2
ZNF729 Fold Change (log2) [KDM4A SCNT/Control SCNT]: 1.75 log2
ZNF735 Fold Change (log2) [KDM4A SCNT/Control SCNT]: 1.24 log2
ZNF789 Fold Change (log2) [KDM4A SCNT/Control SCNT]: 1.28 log2
ZNF791 Fold Change (log2) [KDM4A SCNT/Control SCNT]: 1.38 log2

Source: US20180298405A1, “METHODS AND COMPOSITIONS TO INCREASE HUMAN SOMATIC CELL NUCLEAR TRANSFER (SCNT) EFFICIENCY BY REMOVING HISTONE H3-LYSINE TRIMETHYLATION, AND DERIVATION OF HUMAN NT-ESC” (CHILDREN'S MEDICAL CENTER CORPORATION, priority 2015, published 2018)
